Source: US8268827B2, “Pyridazinone derivatives as PARP inhibitors” (Istituto di Ricerche di Biologia Molecolare P. Angeletti …, priority 2007, dated 2012)
Structures can show the parent of a compound that is named as a salt. Each block holds one compound with its values, some of them ahead of it.

Experiments:
[1] = system: BRCA-1 silenced HeLa cells (HeLa shBRCA1-GFP); assay: Proliferation assay in BRCA-1 silenced HeLa cells; assay type: cell-based; conditions: Homo sapiens; BRCA1 silenced HeLa cells, 168 hours; read-out: CC50 in the BRCA1 silenced HeLa cells
In short: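 HeLa cells with lentiviral shRNA BRCA1 knockdown (>80%), compared with control-vector HeLa, seeded at 300 cells/well. Compound exposure lasted 168 h at 37° C. Viability was read as resazurin-to-resorufin fluorescence (ex 550/em 590 nm).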

PARP-1 = biological target: T1, PARP-1 (Homo sapiens, UniProt P09874); assay: PARP-1 SPA assay; assay type: biochemical
T1 construct: purchased Trevigen 4668-500-01
Experimental: Assay buffer: 100 mM Tris pH 8, 4 mM MgCl2, 4 mM Spermine, 200 mM KCl, 0.04% Nonidet P-40.
Nicotinamide-adenine dinucleotide (NAD)/DNA Mix: [^3H-NAD] (250 uCi/ml, 0.4 ul, Perkin-Elmer NET-443H), NAD (1.5 mM, 0.05 ul, SIGMA N-1511), Biotinylated-NAD (250 uM, 0.03 ul, Trevigen 4670-500-01), Activated calf thymus (1 mg/ml, 0.05 ul, Amersham Biosciences 27-4575), H2O (to 10 ul).
Developing Mix: Streptavidin SPA beads (5 mg/ml, Amersham Biosciences RPNQ 0007) dissolved in 500 mM EDTA.
The reaction is performed in 96-well microplate with a final volume of 50 uL/well. Add 5 ul 5% DMSO/compound solution, add enzyme mix (35 ul), start the reaction by adding NAD/DNA mix (10 uL) and incubate for 2 hrs at RT. Stop the reaction by adding developing mix (25 ul) and incubate 15 min at RT. Measure using a Packard TOP COUNT instrument.

T1 sequence (P09874 whole entry): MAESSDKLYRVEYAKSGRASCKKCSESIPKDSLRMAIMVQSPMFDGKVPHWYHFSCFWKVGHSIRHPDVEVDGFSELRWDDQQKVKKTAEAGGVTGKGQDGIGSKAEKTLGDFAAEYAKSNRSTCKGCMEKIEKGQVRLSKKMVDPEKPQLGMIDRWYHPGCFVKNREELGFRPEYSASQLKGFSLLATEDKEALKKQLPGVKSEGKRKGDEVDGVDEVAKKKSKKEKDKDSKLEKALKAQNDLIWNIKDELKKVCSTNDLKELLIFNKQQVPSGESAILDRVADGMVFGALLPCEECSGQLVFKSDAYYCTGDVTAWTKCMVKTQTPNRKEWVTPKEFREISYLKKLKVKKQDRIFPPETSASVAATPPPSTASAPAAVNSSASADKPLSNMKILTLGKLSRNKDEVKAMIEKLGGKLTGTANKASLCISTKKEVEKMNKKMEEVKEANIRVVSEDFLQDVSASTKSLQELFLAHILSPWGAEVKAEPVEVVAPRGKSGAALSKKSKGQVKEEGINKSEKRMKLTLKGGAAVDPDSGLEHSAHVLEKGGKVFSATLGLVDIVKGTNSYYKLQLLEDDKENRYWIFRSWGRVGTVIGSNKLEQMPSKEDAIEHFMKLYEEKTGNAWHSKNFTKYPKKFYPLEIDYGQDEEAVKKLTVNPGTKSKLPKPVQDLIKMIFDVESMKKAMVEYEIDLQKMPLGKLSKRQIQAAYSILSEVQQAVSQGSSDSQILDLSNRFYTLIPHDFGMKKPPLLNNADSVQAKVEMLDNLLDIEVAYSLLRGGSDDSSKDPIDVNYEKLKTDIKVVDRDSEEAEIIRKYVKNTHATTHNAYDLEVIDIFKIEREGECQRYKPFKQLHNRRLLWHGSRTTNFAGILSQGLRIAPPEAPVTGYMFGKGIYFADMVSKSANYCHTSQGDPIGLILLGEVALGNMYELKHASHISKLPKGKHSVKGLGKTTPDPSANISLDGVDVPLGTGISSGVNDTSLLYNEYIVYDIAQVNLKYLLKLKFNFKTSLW

SMILES: Cc1c(Cc2ccc(F)c(C(=O)N3CCN([C@@H]4CCCC[C@H]4c4ccccc4)C(=O)C3)c2)n[nH]c(=O)c1C [Example 67, 6-[4-Fluoro-3-({3-oxo-4-[(1R,2S)-2-phenylcyclohexyl]piperazin-1-yl}carbonyl)benzyl]-4,5-dimethyl-3-oxo-2,3-dihydropyridazin-1-ium trifluoroacetate]
CC50 [1]: 50 to 500 nM | IC50 (PARP-1): 5 to 25 nM

SMILES: Cc1c(Cc2ccc(F)c(C(=O)N3CCN(c4ccc(S(C)(=O)=O)cc4)C(=O)C3)c2)n[nH]c(=O)c1C [Example 95, 3-[4-Fluoro-3-({4-[4-(methylsulfonyl)phenyl]-3-oxopiperazin-1-yl}carbonyl)benzyl]-4,5-dimethyl-6-oxo-1,6-dihydropyridazin-1-ium trifluoroacetate]
CC50 [1]: 50 to 500 nM | IC50 (PARP-1): < 5 nM

SMILES: Cc1c(Cc2ccc(F)c(C(=O)N3CCN(CC(F)(F)F)C(=O)C3)c2)n[nH]c(=O)c1C [Example 72, 6-(4-Fluoro-3-{[3-oxo-4-(2,2,2-trifluoroethyl)piperazin-1-yl]carbonyl}benzyl)-4,5-dimethyl-3-oxo-2,3-dihydropyridazin-1-ium trifluoroacetate]
CC50 [1]: 50 to 500 nM | IC50 (PARP-1): 5 to 25 nM

SMILES: Cc1c(Cc2ccc(F)c(C(=O)N3CCN(C4CCCCCC4)C(=O)C3)c2)n[nH]c(=O)c1C [Example 73, 6-{3-[(4-Cycloheptyl-3-oxopiperazin-1-yl)carbonyl]-4-fluorobenzyl}-4,5-dimethyl-3-oxo-2,3-dihydropyridazin-1-ium trifluoroacetate]
CC50 [1]: < 50 nM | IC50 (PARP-1): < 5 nM

SMILES: Cc1c(Cc2ccc(F)c(C(=O)N3CCN(C4CC(F)(F)C4)C(=O)C3)c2)n[nH]c(=O)c1C [Example 55, 6-(3-{[4-(3,3-Difluorocyclobutyl)-3-oxopiperazin-1-yl]carbonyl}-4-fluorobenzyl)-4,5-dimethyl-3-oxo-2,3-dihydropyridazin-1-ium trifluoroacetate]
CC50 [1]: 50 to 500 nM | IC50 (PARP-1): 5 to 25 nM

SMILES: Cc1c(Cc2ccc(F)c(C(=O)N3CCN(C4CCC(C)(C)CC4)C(=O)C3)c2)n[nH]c(=O)c1C [Example 50, 6-(3-{[4-(4,4-Dimethylcyclohexyl)-3-oxopiperazin-1-yl]carbonyl}-4-fluorobenzyl)-4,5-dimethyl-3-oxo-2,3-dihydropyridazin-1-ium trifluoroacetate]
CC50 [1]: < 50 nM | IC50 (PARP-1): 5 to 25 nM

SMILES: Cc1c(Cc2ccc(F)c(C(=O)N3CCN([C@H]4CCOC4)C(=O)C3)c2)n[nH]c(=O)c1C [Example 113, 6-[4-Fluoro-3-({3-oxo-4-[(3S)-tetrahydrofuran-3-yl]piperazin-1-yl}carbonyl)benzyl]-4,5-dimethylpyridazin-3(2H)-one]
CC50 [1]: 50 to 500 nM | IC50 (PARP-1): 5 to 25 nM

SMILES: Cc1c(Cc2ccc(F)c(C(=O)N3CC(=O)N(c4ccc(F)cc4)C(C)C3)c2)n[nH]c(=O)c1C (racemic) [Example 79, 3-{4-Fluoro-3-[4-(4-fluoro-phenyl)-3-methyl-5-oxo-piperazine-1-carbonyl]-benzyl}-4,5-dimethyl-6-oxo-1,6-dihydro-pyridazin-1-ium trifluoroacetate]
CC50 [1]: < 50 nM | IC50 (PARP-1): < 5 nM

SMILES: Cc1c(Cc2ccc(F)c(C(=O)N3CC(=O)N(c4ccccc4)[C@H](C)C3)c2)n[nH]c(=O)c1C (single isomer, unassigned) [Example 78 (LL4B)]
CC50 [1]: < 50 nM | IC50 (PARP-1): < 5 nM

SMILES: Cc1c(Cc2ccc(F)c(C(=O)N3CCN(C(c4cccnc4)C(F)F)C(=O)C3)c2)n[nH]c(=O)c1C (centres unmarked) [Example 96, 6-(3-{[4-(2,2-difluoro-1-pyridin-3-ylethyl)-3-oxopiperazin-1-yl]carbonyl}-4-fluorobenzyl)-4,5-dimethyl-3-oxo-2,3-dihydropyridazin-1-ium trifluoroacetate]
CC50 [1]: < 5000 nM | IC50 (PARP-1): 5 to 25 nM

SMILES: Cc1c(Cc2ccc(F)c(C(=O)N3CCN(C45CC(C4)C5)C(=O)C3)c2)n[nH]c(=O)c1C [Example 52, 6-{3-[(4-Bicyclo[1.1.1]pent-1-yl-3-oxopiperazin-1-yl)carbonyl]-4-fluorobenzyl}-4,5-dimethyl-3-oxo-2,3-dihydropyridazin-1-ium trifluoroacetate]
CC50 [1]: 50 to 500 nM | IC50 (PARP-1): 5 to 25 nM

SMILES: Cc1c(Cc2ccc(F)c(C(=O)N3CC(=O)N4CCCCC4C3)c2)n[nH]c(=O)c1C (centres unmarked) [Example 32, 6-{4-Fluoro-3-[(4-oxooctahydro-2H-pyrido[1,2-a]pyrazin-2-yl)carbonyl]benzyl}-4,5-dimethyl-3-oxo-2,3-dihydropyridazin-1-ium trifluoroacetate]
CC50 [1]: < 50 nM | IC50 (PARP-1): 5 to 25 nM

SMILES: O=C(c1cc(Cc2cc(C(F)(F)F)c(=O)[nH]n2)ccc1F)N1CC(=O)N2CCCC[C@H]2C1 (single isomer, unassigned) [92 (ZZ1)]
CC50 [1]: < 5000 nM | IC50 (PARP-1): < 5 nM

Further lines, with some results ahead:

IC50 (PARP-1): 5 to 25 nM
SMILES: CCc1cc(Cc2ccc(F)c(C(=O)N3CCN(CC(F)(F)F)C(=O)C3)c2)n[nH]c1=O [Example 134, 4-ethyl-6-(4-fluoro-3-{[3-oxo-4-(2,2,2-trifluoroethyl)piperazin-1-yl]carbonyl}benzyl)-3-oxo-2,3-dihydropyridazin-1-ium trifluoroacetate]
CC50 [1]: < 5000 nM

IC50 (PARP-1): < 5 nM
SMILES: CCc1cc(Cc2ccc(F)c(C(=O)N3CCN([C@H]4CCCOC4)C(=O)C3)c2)n[nH]c1=O [Example 144, 4-ethyl-6-[4-fluoro-3-({3-oxo-4-[(3S)-tetrahydro-2H-pyran-3-yl]piperazin-1-yl}carbonyl)benzyl]pyridazin-3(2H)-one]
CC50 [1]: < 5000 nM

IC50 (PARP-1): 5 to 25 nM
SMILES: Cc1c(Cc2ccc(F)c(C(=O)N3CC(=O)N(CC(F)(F)F)C(C)C3)c2)n[nH]c(=O)c1C (centres unmarked) [Example 139, 6-(4-fluoro-3-{[3-methyl-5-oxo-4-(2,2,2-trifluoroethyl)piperazin-1-yl]carbonyl}benzyl)-4,5-dimethyl-3-oxo-2,3-dihydropyridazin-1-ium trifluoroacetate]
CC50 [1]: 50 to 500 nM

IC50 (PARP-1): 5 to 25 nM
SMILES: COCCN1CCN(C(=O)c2cc(Cc3n[nH]c(=O)c(C)c3C)ccc2F)CC1=O [Example 170, 6-(4-Fluoro-3-{[4-(2-methoxyethyl)-3-oxopiperazin-1-yl]carbonyl}benzyl)-4,5-dimethylpyridazin-3(2H)-one]
CC50 [1]: < 5000 nM

IC50 (PARP-1): 5 to 25 nM
SMILES: CCc1cc(Cc2ccc(F)c(C(=O)N3CCN([C@@H]4CCCOC4)C(=O)C3)c2)n[nH]c1=O [Example 145, 4-ethyl-6-[4-fluoro-3-({3-oxo-4-[(3R)-tetrahydro-2H-pyran-3-yl]piperazin-1-yl}carbonyl)benzyl]pyridazin-3(2H)-one]
CC50 [1]: 50 to 500 nM

IC50 (PARP-1): < 5 nM
SMILES: Cc1c(Cc2ccc(F)c(C(=O)N3CC(=O)N4CCOCC4C3)c2)n[nH]c(=O)c1C(F)(F)F (centres unmarked) [Example 136, 3-{4-Fluoro-3-[(6-oxohexahydropyrazino[2,1-c][1,4]oxazin-8(1H)-yl)carbonyl]benzyl}-4-methyl-6-oxo-5-(trifluoromethyl)-1,6-dihydropyridazin-1-ium trifluoroacetate]
CC50 [1]: 50 to 500 nM

IC50 (PARP-1): 5 to 25 nM
SMILES: Cc1c(Cc2ccc(F)c(C(=O)N3CC(=O)N4CCCC[C@H]4C3)c2)n[nH]c(=O)c1C(F)(F)F [Example 135, 3-(4-Fluoro-3-{[(9aS)-4-oxooctahydro-2h-pyrido[1,2-a]pyrazin-2-yl]carbonyl}benzyl)-4-methyl-6-oxo-5-(trifluoromethyl)-1,6-dihydropyridazin-1-ium trifluoroacetate]
CC50 [1]: < 50 nM

IC50 (PARP-1): 5 to 25 nM
SMILES: Cc1c(Cc2ccc(F)c(C(=O)N3CCN(CCOC(C)C)C(=O)C3)c2)n[nH]c(=O)c1C [Example 172, 6-(4-Fluoro-3-{[4-(2-isopropoxyethyl)-3-oxopiperazin-1-yl]carbonyl}benzyl)-4,5-dimethylpyridazin-3(2H)-one]
CC50 [1]: < 5000 nM

IC50 (PARP-1): 5 to 25 nM
SMILES: Cc1c(Cc2ccc(F)c(C(=O)N3CC(=O)N(C4CCCCC4)C(C)C3)c2)n[nH]c(=O)c1C (centres unmarked) [Example 125, 3-{3-[(4-Cyclohexyl-3-methyl-5-oxopiperazin-1-yl)carbonyl]-4-fluorobenzyl}-4,5-dimethyl-6-oxo-1,6-dihydropyridazin-1-ium trifluoroacetate]
CC50 [1]: < 50 nM

IC50 (PARP-1): 5 to 25 nM
SMILES: C[C@@H]1CN(C(=O)c2cc(Cc3cc(C(F)(F)F)c(=O)[nH]n3)ccc2F)CC(=O)N1C1CCCC1 [Example 151, 6-(3-{[(3R)-4-cyclopentyl-3-methyl-5-oxopiperazin-1-yl]carbonyl}-4-fluorobenzyl)-4-(trifluoromethyl)pyridazin-3(2H)-one]
CC50 [1]: < 50 nM

IC50 (PARP-1): 5 to 25 nM
SMILES: COc1ccc(CN2C(=O)CN(C(=O)c3cc(Cc4n[nH]c(=O)c(C)c4C)ccc3F)CC2C)cc1 (centres unmarked) [Example 138, 6-(4-fluoro-3-{[4-(4-methoxybenzyl)-3-methyl-5-oxopiperazin-1-yl]carbonyl}benzyl)-4,5-dimethyl-3-oxo-2,3-dihydropyridazin-1-ium trifluoroacetate]
CC50 [1]: 50 to 500 nM

IC50 (PARP-1): < 5 nM
SMILES: Cc1c(Cc2ccc(F)c(C(=O)N3CCN(C4CCOC4)C(=O)C3)c2)n[nH]c(=O)c1C(F)(F)F (centres unmarked) [Example 142, 3-(4-Fluoro-3-{[3-oxo-4-(tetrahydrofuran-3-yl)piperazin-1-yl]carbonyl}benzyl)-4-methyl-6-oxo-5-(trifluoromethyl)-1,6-dihydropyridazin-1-ium trifluoroacetate]
CC50 [1]: < 50 nM
